The values below come from US7229987B2, “Multicyclic compounds for use as melanin concentrating hormone antagonists in the treatment of obesity and diabetes” (Eli Lilly and Company, priority 2002, dated 2007).

Where a name gives a salt, the structure may show the parent alone.

By melting point is commonly meant the temperature of the solid-liquid transition. Take `CN(C)CCCOc1ccc(-c2nnc(CCc3ccc4ccccc4c3)o2)cc1` (as salt: hydrochloride) [Example 205, Dimethyl-{3-[4-(5-naphthalene-2-ylethyl-[1,3,4]oxadiazol-2-yl)phenoxy]propyl}amine]: the melting point was in the range of 208 to 210 °C.

For `c1csc(SCc2nnc(-c3ccc(OCCCN4CCCCC4)cc3)o2)n1` (as salt: hydrochloride) [Example 226, 1-(3-{4-[5-(thiazol-2-ylsulfanylmethyl)-[1,3,4]oxadiazol-2-yl]phenoxy}propyl)piperdine], the melting point is 174 to 176 °C.

The molecule `COCCSCc1nnc(-c2ccc(OCCCN(C)C)cc2)o1` (as salt: maleate) [Example 281, (3-{4-[5-(2-methoxy-ethylsulfanylmethyl)-[1,3,4]oxadiazol-2-yl]-phenoxy}-propyl)-dimethyl-amine] gave a melting point of 97.5 to 99 °C.

`CN(C)CCCOc1ccc(-c2nnc(CSCCOCc3ccccc3)o2)cc1` (as salt: maleate) [Example 282, (3-{4-[5-(2-phenylmethoxy-ethylsulfanylmethyl)-[1,3,4]oxadiazol-2-yl]-phenoxy}-propyl)-dimethyl-amine] registered a melting point of 71.5 to 72 °C.

Molecule `CN(C)CCCOc1ccc(-c2nnc(CCOCCOc3ccccc3)o2)cc1` (as salt: oxalate) [Example 215, Dimethyl-[3-(4-{5-[2-(2-phenxoyethoxy)ethyl]-[1,3,4]oxadiazol-2-yl}phenoxy)propyl]amine] came in with a melting point of 116 to 118 °C.

Molecule `CN(C)CCCNC(=O)c1ccc(-c2nnc(CSCCOc3ccc(Cl)cc3Cl)o2)cc1` [Example 44, 4-{5-[2-(2,4-dichlorophenoxy)-ethylsulfanylmethyl]-[1,3,4]-oxadiazol-2-yl}-N-(3-dimethylaminopropyl)-benzamide] came in with a melting point of 140 to 141 °C.

For the molecule `CN(C)CCCNC(=O)c1ccc(-c2nnc(CSCCCOc3ccccc3)o2)cc1` [Example 47, N-(3-dimethylaminopropyl)-4-[5-(3-phenoxypropylsulfanylmethyl)-[1,3,4]oxadiazol-2-yl]-benzamide], the melting point lay within 77 to 80 °C.

In turn, `CN(C)CCCNC(=O)c1ccc(-c2nnc(CSCCCCOc3ccccc3)o2)cc1` [Example 48, N-(3-dimethylaminopropyl)-4-[5-(4-phenoxybutylsulfanylmethyl)-[1,3,4]oxadiazol-2-yl]-benzamide] came in with a melting point of 87 to 93 °C.

Consider `CN(C)CCCOc1ccc(-c2nnc(CSCCCOc3ccccc3)o2)cc1.O=C(O)C(=O)O` [Example 49, dimethyl-(3-{4-[5-(3-phenoxypropylsulfanylmethyl)-[1,3,4]oxadiazol-2-yl]-phenoxy}-propyl)-amine, oxalic acid salt], for which the melting point fell in the range of 131 to 133 °C.

On to `CN(C)CCCOc1ccc(-c2nnc(CSCCCCOc3ccccc3)o2)cc1` [Example 50, dimethyl-(3-{4-[5-(4-phenoxybutylsulfanylmethyl)-[1,3,4]oxadiazol-2-yl]-phenoxy}-propyl)-amine], for which the melting point was 69 to 73 °C.

Take `CN(C)CCNC(=O)c1ccc(-c2nnc(CSCCOc3ccccc3)o2)cc1` [Example 54, N-(2-dimethylaminoethyl)-4-[5-(2-phenoxyethylsulfanylmethyl)-[1,3,4]oxadiazol-2-yl]-benzamide]: the melting point fell in the range of 94 to 100 °C.

`CN(C)CCCCNC(=O)c1ccc(-c2nnc(CSCCOc3ccccc3)o2)cc1` [Example 55, N-(4-dimethylaminobutyl)-4-[5-(2-phenoxyethylsulfanylmethyl)-[1,3,4]oxadiazol-2-yl]-benzamide] registered a melting point of 71 to 78 °C.

`CN(C)CCCCCNC(=O)c1ccc(-c2nnc(CSCCOc3ccccc3)o2)cc1` [Example 56, N-(5-dimethylaminopentyl)-4-[5-(2-phenoxyethylsulfanylmethyl)-[1,3,4]oxadiazol-2-yl]-benzamide]: the melting point was 83 to 89 °C.

For the molecule `CN(C)CCCCCCNC(=O)c1ccc(-c2nnc(CSCCOc3ccccc3)o2)cc1` [Example 57, N-(6-dimethylaminohexyl)-4-[5-(2-phenoxyethylsulfanylmethyl)-[1,3,4]oxadiazol-2-yl]-benzamide], the melting point was in the range of 86 to 93 °C.

The molecule `CN(C)CCCOc1ccc(-c2nnc(-c3ccc(-c4ccccc4)cc3)o2)cc1` [Example 58, {3-[4-(5-biphenyl-4-yl-[1,3,4]oxadiazol-2-yl)-phenoxy]-propyl}-dimethylamine] yielded a melting point of 130 to 132 °C.

As for `CN(C)CCCOc1ccc(-c2nnc(CSCCOc3ccccc3)s2)cc1` [Example 59, Dimethyl-(3-{4-[5-(2-phenoxyethylsulfanylmethyl)-[1,3,4]thiadiazol-2-yl]-phenoxy}-propyl)-amine], the melting point is 72 to 73 °C.

`CN(C)CCNC(=O)c1cccc(-c2nnc(CSCCOc3ccccc3)o2)c1` [Example 60, N-(2-Dimethylamino-ethyl)3-[5-(2-phenoxy-ethylsulfanylmethyl)-[1,3,4]oxadiazol-2-yl]-benzamide]: the melting point was found to be 64 °C.

`CN(C)CCCCNC(=O)c1cccc(-c2nnc(CSCCOc3ccccc3)o2)c1` [Example 61, N-(4-dimethylamino-butyl)-3-[5-(2-phenoxy-ethylsulfanylmethyl)-[1,3,4]oxadiazol-2-yl]-benzamide] yielded a melting point of 38 to 42 °C.

In turn, `CN(C)CCCNC(=O)c1cccc(-c2nnc(CSCCOc3ccccc3)o2)c1` [Example 62, N-(3-dimethylamino-propyl)-3-[5-(2-phenoxy-ethylsulfanylmethyl)-[1,3,4]oxadiazol-2-yl]-benzamide] came in with a melting point of 88 to 90 °C.

`CN(C)CCCCNC(=O)c1ccccc1-c1nnc(CSCCOc2ccccc2)o1` [Example 63, N-(4-dimethylamino-butyl)-2-[5-(2-phenoxy-ethylsulfanylmethyl)-[1,3,4]oxadiazol-2-yl]-benzamide]: the melting point lay in the range of 62 to 65 °C.

For `CN(C)CCNC(=O)c1ccccc1-c1nnc(CSCCOc2ccccc2)o1` [Example 64, N-(2-dimethylamino-ethyl)-2-[5-(2-phenoxy-ethylsulfanylmethyl)-[1,3,4]oxadiazol-2-yl]-benzamide], the melting point was in the range of 80 to 85 °C.

In the case of `CN(C)CCCNC(=O)c1ccccc1-c1nnc(CSCCOc2ccccc2)o1` [Example 65, N-(3-dimethylamino-propyl)-2-[5-(2-phenoxy-ethylsulfanylmethyl)-[1,3,4]oxadiazol-2-yl]-benzamide], the melting point was in the range of 60 to 65 °C.

The molecule `CN(C)CCOc1ccc(-c2nnc(CSCCOc3ccccc3)o2)cc1` [Example 66, dimethyl-(2-{4-[5-(2-phenoxy-ethylsulfanylmethyl)-[1,3,4]oxadiazol-2-yl]-phenoxy}-ethyl)-amine] gave a melting point of 62 to 64 °C.

As to `CN(C)CCCOc1ccc(-c2nnc(CSCCOc3ccccc3)o2)cc1` [Example 67, dimethyl-(3-{4-[5-(2-phenoxy-ethylsulfanylmethyl)-[1,3,4]oxadiazol-2-yl]-phenoxy}-propyl)-amine], the melting point amounted to 70 °C.

`CN(C)CCCCOc1ccc(-c2nnc(CSCCOc3ccccc3)o2)cc1` [Example 68, dimethyl-(4-{4-[5-(2-phenoxy-ethylsulfanylmethyl)-[1,3,4]oxadiazol-2-yl]-phenoxy}-butyl)-amine] gave a melting point of 62 to 63 °C.
